Measured values as given in patent publication US5866587A, “Metalloprotease inhibitors” (Adir Et Compagnie, priority 1996, dated 1999).
Counter-ions that a name gives are not always drawn.

Columns and labels:
guinea pig cartilage [1] = assay: Degradation of the cartilaginous matrix induced by IL-1β: degradation of proteoglycans (35SO4 glycosaminoglycan release); format: cell-based; settings: IL-1β (10 mg/ml), 3 days; for inhibition at 30 µM: Cavia porcellus, 72 h, 3 × 10^-5 M, cartilage labeled with 35SO4, read-out: proteoglycans % protection at 3 × 10^-5M
Experimental: (§1) The compounds of the invention were studied in a model of destruction of the cartilaginous matrix induced by IL-1β. The trials carried out on guinea pig cartilage relate:
on the other hand, to the degradation of proteoglycans: radioisotopic measurement of the glycosaminoglycan fraction released by the tissue during the 3 days of contact with IL-1β (10 mg/mil), the cartilage having been labeled beforehand with ^35 SO4.
(§2) The compounds of the invention were studied by addition to the culture medium for the 3 days of assay. […] By way of example, the activities exerted by some compounds of the invention are the following: […]

guinea pig cartilage [2] = assay: Degradation of the cartilaginous matrix induced by IL-1β: degradation of collagen (OH-proline release); format: cell-based; settings: IL-1β (10 mg/ml) and plasminogen (30 μg/ml), 3 days; for inhibition at 1 µM: Cavia porcellus, 72 h, 10^-6 M, read-out: collagen % protection at 10^-6 M
Experimental: as §1
on the one hand, to the degradation of collagen: colorimetric assay according to the Grant technique (Grant R. A. Estimation of OH-proline by the autoanalyser, J. Clin. Path. 1964, 17, 685) of the OH-proline fraction released by the tissue brought into contact, for 3 days, with IL-1β ([…]) and of plasminogen (30 μg/ml),
as §2

ovarian cancers = settings: Becket et al., DDT 1996; cited from earlier work
[3] = test system: sections of thoracic aorta from Fischer 344 rats; assay: Angiogenesis in vitro, formation of pseudovessels in collagen gel; format: cell-based; settings: Rattus norvegicus, 120 h; at 100 nM, five days of culture in serum-free medium; read-out: inhibition of formation of pseudovessels (vascular density)
Excerpt: Sections of thoracic aorta from 8- to 12-week old male Fischer 344 rats are immersed in a collagen type I gel according to the Nicosia and Ottinetti method (1990). After five days of culture in serum-free medium, the preparations are examined under a microscope and the formation of pseudovessels is quantified in terms of vascular density after digitization and image analysis.

[4] = test system: murine Lewis carcinoma cells (LLC); assay: Invasion in vitro, Transwell filter coated with artificial extracellular matrix; format: cell-based; settings: Mus musculus, 24 h, medium with serum, read-out: inhibition of cellular invasion
Experimental: The tests of invasion are carried out according to the following procedure: murine Lewis carcinoma cells (LLC) are deposited on the top face of a Transwell filter coated with an artificial extracellular matrix and are cultured in medium with serum for 24 h. The cells are then exposed to the vital stain 3-[4,5-dimethylthiazol-2-yl]-2,5-diphenyltetrazolium bromide and they are removed from the top face of the filter. The formazan crystals present under the filter are solubilized in a concentrated mixture of sodium dodecyl sulfate and dimethylformamide. The absorption at 540 nm of the corresponding colored mixture is then used to indirectly quantify cellular invasion.

CCCCCCCC1c2[nH]c3ccccc3c2C[C@H](C(=O)NO)N1S(=O)(=O)c1ccc(OC)cc1 (single isomer, unassigned) [Example 7]
proteoglycans % protection at 3 × 10^-5M (guinea pig cartilage [1]; cartilage labeled with 35SO4, 30 µM): 100%
collagen % protection at 10^-6 M (guinea pig cartilage [2]; 1 µM): 47%

CNC(=O)[C@H](Cc1ccccc1)NC(=O)[C@H](CC(C)C)[C@H](CSc1cccs1)C(=O)NO [BB94]
antitumor activity in clinical trials (ovarian cancers): proved active on ovarian cancers

COc1ccc(S(=O)(=O)N2Cc3ccsc3C[C@@H]2C(=O)NO)cc1 [Example 1, (6R)-5-(4-Methoxybenzenesulfonyl)-4,5,6,7-tetrahydrothieno[3,2-c]pyridine-6-(N-hydroxy)carboxamide]
inhibition at 0.1 µM [3]: 87%
inhibition at 30 µM (guinea pig cartilage [1]): 45%
inhibition at 1 µM (guinea pig cartilage [2]): 98%
inhibition at 1 µM [4]: 45%

COc1ccc(S(=O)(=O)N2Cc3sccc3C[C@@H]2C(=O)NO)cc1 [Example 15, (5R)-6-(4-Methoxybenzenesulfonyl)-4,5,6,7-tetrahydro-thieno[2,3-c]pyridine-5-(N-hydroxy)carboxamide]
inhibition at 30 µM (guinea pig cartilage [1]): 60%
inhibition at 1 µM (guinea pig cartilage [2]): 98%

COc1ccc(S(=O)(=O)N2Cc3nc[nH]c3C[C@@H]2C(=O)NO)cc1 [Example 23, (6R)-5-(4-Methoxybenzenesulfonyl)-4,5,6,7-tetrahydro-imidazo[4,5-c]pyridine-6-(N-hydroxy)carboxamide Hydrochloride]
inhibition at 30 µM (guinea pig cartilage [1]): 24%
inhibition at 1 µM (guinea pig cartilage [2]): 88%

COc1ccc(S(=O)(=O)N2Cc3occc3C[C@@H]2C(=O)NO)cc1 [Example 28, (5R)-6-(4-Methoxybenzenesulfonyl)-4,5,6,7-tetrahydrofuro[2,3-c]pyridine-5-(N-hydroxy)carboxamide]
inhibition at 0.1 µM [3]: 85%
inhibition at 30 µM (guinea pig cartilage [1]): 34%
inhibition at 1 µM (guinea pig cartilage [2]): 79%
inhibition at 1 µM [4]: 44%
